IC50 data for 15 compounds are collected here from patent publication US20130005728A1, “SUBSTITUTED PYRIMIDINES AS PROSTAGLANDIN D2 RECEPTOR ANTAGONISTS” (AVENTIS PHARMACEUTICALS INC., priority 2010, published 2013).

Where a name gives a salt, the structure may show the parent alone.

One experiment deals with T1, human prostaglandin D2 receptor (DP) (DP1) (Homo sapiens, UniProt Q13258).
T1 construct: endogenous in cells; host or cells: human platelets in platelet-rich plasma from donor blood
T1 sequence (Q13258 1-359): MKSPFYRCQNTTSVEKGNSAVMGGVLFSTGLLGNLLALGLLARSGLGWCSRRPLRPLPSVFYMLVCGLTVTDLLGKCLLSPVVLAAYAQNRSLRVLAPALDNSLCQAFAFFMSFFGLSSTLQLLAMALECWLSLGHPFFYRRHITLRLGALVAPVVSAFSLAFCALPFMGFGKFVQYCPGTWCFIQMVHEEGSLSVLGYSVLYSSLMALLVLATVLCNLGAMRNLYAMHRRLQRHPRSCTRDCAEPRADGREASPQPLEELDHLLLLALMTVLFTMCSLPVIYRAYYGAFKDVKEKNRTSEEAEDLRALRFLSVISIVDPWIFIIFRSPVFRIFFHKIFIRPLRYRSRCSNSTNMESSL
The experiment is described as follows: Antagonist activity on BW245C-induced cAMP accumulation in human platelet rich plasma (hPRP) by HTRF cAMP assay. Type of experiment: cell-based. The note with it: inhibition of BW245C (25 nM)-induced cAMP accumulation in human platelet rich plasma; compound tested as HCl salt; read-out: hPRP IC50 (as HCl salt). An excerpt: Assessment of Antagonist Activities of Compounds on BW245C-induced cAMP Accumulation in Human Platelet Rich Plasma (hPRP) by HTRF cAMP Assay
The purpose of the assay is to assess compound antagonist activity at the human prostaglandin D2 receptor (DP) (DP1) in the presence of plasma proteins. DP is a Gs-protein coupled receptor, the activation of which induces cAMP accumulation. BW245C is a DP selective agonist. Therefore, by measuring inhibition of BW245C-induced 3′-5′-cyclic adenosine monophosphate (cAMP) accumulation in human platelet-rich plasma (PRP), the assay enables us to identify or confirm antagonist compounds at the human DP and/or IP receptors.
The principle of the assay is based on HTRF technology (Homogeneous Time-Resolved Fluorescence). The method is a competitive immunoassay between native cAMP produced by cells and the tracer cAMP labeled with the dye d2. The tracer is visualized by a monoclonal antibody anti-cAMP labeled with cryptate. The specific signal (i.e. energy transfer) is inversely related to the concentration of cAMP in the standards or samples. The assay was carried out using the cAMP HiRange HTRF kit from Cisbio (catalog number 62AM6PEB, 888-963-4567).
Preparation of Human Platelet Rich Plasma (hPRP): Human blood was obtained from sanofi-aventis on-site blood donor panel. The blood was gently transferred from the blood bag into a 50 ml centrifuge tube and centrifuged at 223×g (1000 rpm) for 15 minutes without break. The top layer (PRP) was aspirated slowly and transferred to a 250 ml centrifuge tube. The PRP was placed in the cell culture hood for approximately 30 minutes before use.
Preparation of IBMX: IBMX is a phosphodiesterase (PDE) inhibitor and is included in the assay to prevent breakdown of cAMP. 1M IBMX stock was prepared in DMSO. 20 μL of 1M IBMX stock was then added into 30 μL of DMSO to obtain a 400 mM IBMX DMSO solution. This was further diluted 1:50 in 0.9% sodium chloride to obtain an 8 mM IBMX working solution. The solution was sonicated for 60 minutes before use.
Preparation of BW245C: 10 mM BW245C stock was prepared in DMSO and aliquots were stored at −80° C. On the day of the assay, 10 mM BW245C stock was diluted 1 to 400 in DMSO to make a 25 μM solution. 100 μL of the 25 μM BW245C solution was added to 4900 μL of 0.9% sodium chloride to make a 500 nM working solution.
Dilution of compounds: 10 mM compound DMSO stock solutions were serially diluted 1:3 in DMSO in a 96-well plate to achieve 11 different concentrations ranging from 10 mM to 0.00017 mM. A further 1:20 dilution in 0.9% sodium chloride solution was carried out for each concentration to obtain working concentrations ranging from 500 μM to 0.0085 μM (11 points) for each compound. For positive and negative controls, DMSO (without compound) was diluted 1:20 in 0.9% sodium chloride solution.
Preparation of cAMP standards, cAMP-d2 and anti-cAMP cryptate (all in the assay kit): cAMP standard was reconstituted by adding distilled water according to the manufacturer's instruction (456 μL of water usually). The reconstituted cAMP standard was serially diluted 1:4 in 0.9% sodium chloride solution to achieve 11 different concentrations. cAMP-d2 was reconstituted by adding 2 mL of distilled water and then further diluting it in 8 mL of lysis buffer (in the kit). Anti-cAMP cryptate was reconstituted by adding 1.1 mL of distilled water and then further diluting it in 4.4 mL of lysis buffer.
Assay Procedure: In the assay, each compound was run in duplicate. The final assay volume was 50 μl in each well.
In the assay plate, 42 μL of platelet rich plasma (PRP) was added in each well. This was followed by the addition in each well of 2.5 μL of 8 mM IBMX (final concentration 400 μM) and 3 μL of diluted compound at varying concentrations (final concentrations ranging from 30,000 nM to 0.51 nM, 11 points for each compound). In the positive and negative control wells, 3 μL of diluted DMSO solution was added instead of compound. […]
A general note: Changes in cAMP serve as a functional read-out for many G protein-coupled receptors.
For the compound `COc1nc(NCCc2ccc(OC(F)(F)F)cc2)cc(N2CCOCC2)n1` [Example 5, (2-Methoxy-6-morpholin-4-yl-pyrimidin-4-yl)-[2-(4-trifluoromethoxy-phenyl)-ethyl]-amine], the IC50 came to 1180 nM.

Take `COc1nc(NCCc2ccc(OC(F)(F)F)cc2)cc(N2CCCCC2C(=O)O)n1` (stereo not drawn) [Example 3, 1-{2-Methoxy-6-[2-(4-trifluoromethoxy-phenyl)-ethylamino]-pyrimidin-4-yl}-piperidine-2-carboxylic acid trifluoroacetate]: the IC50 is 885 nM.

Still in this experiment, the particulars now being: inhibition of BW245C (25 nM)-induced cAMP accumulation in human platelet rich plasma; read-out: hPRP IC50.
As for `COc1nc(NCCc2ccc(OC(F)(F)F)cc2)cc(N2CCN(c3ccccc3)CC2)n1` [Example 13, [2-Methoxy-6-(4-phenyl-piperazin-1-yl)-pyrimidin-4-yl]-[2-(4-trifluoromethoxy-phenyl)-ethyl]-amine], the IC50 stood at 397 nM.

As to `CCOC(=O)N1CCN(c2cc(NCCc3ccc(OC(F)(F)F)cc3)nc(OC)n2)CC1` [Example 6], the IC50 is 609 nM.

Regarding `COc1nc(NCCc2ccc(OC(F)(F)F)cc2)cc(N2CCN(CC(=O)O)CC2)n1` [Example 2, (4-{2-Methoxy-6-[2-(4-trifluoromethoxy-phenyl)-ethylamino]-pyrimidin-4-yl}-piperazin-1-yl)-acetic acid tristrifluoroacetate], the IC50 was 368 nM.

With `COc1nc(NCCc2ccc(OC(F)(F)F)cc2)cc(N2CCCCC2CC(=O)O)n1` (stereo not drawn) [Example 4, (1-{2-Methoxy-6-[2-(4-trifluoromethoxy-phenyl)-ethylamino]-pyrimidin-4-yl}-piperidin-2-yl)-acetic acid trifluoroacetate], the IC50 was 32 nM.

For the compound `COc1nc(NCCc2ccc(OC(F)(F)F)cc2)cc(N2CCC(C)(C(=O)O)C2)n1` (stereo not drawn) [Example 7, 1-{2-Methoxy-6-[2-(4-trifluoromethoxy-phenyl)-ethylamino]-pyrimidin-4-yl}-3-methyl-pyrrolidine-3-carboxylic acid], the IC50 came to 317 nM.

Regarding `COc1nc(NCCc2ccc(OC(F)(F)F)cc2)cc(N2CC[C@H](CC(=O)O)C2)n1` [Example 14, ((R)-1-{2-Methoxy-6-[2-(4-trifluoromethoxy-phenyl)-ethylamino]-pyrimidin-4-yl}-pyrrolidin-3-yl)-acetic acid], the IC50 is 713 nM.

Take `COc1nc(NCCc2ccc(OC(F)(F)F)cc2)cc(N2C[C@@H](C(=O)O)[C@H](C(C)C)C2)n1` [Example 8, (3S,4S)-4-Isopropyl-1-{2-methoxy-6-[2-(4-trifluoromethoxy-phenyl)-ethylamino]-pyrimidin-4-yl}-pyrrolidine-3-carboxylic acid]: the 50% inhibitory concentration (IC50) is 376 nM.

For `COc1ccc([C@H]2CN(c3cc(NCCc4ccc(OC(F)(F)F)cc4)nc(OC)n3)C[C@@H]2C(=O)O)cc1` [Example 11, (3R,4S)-4-(4-Methoxy-phenyl)-1-{2-methoxy-6-[2-(4-trifluoromethoxy-phenyl)-ethylamino]-pyrimidin-4-yl}-pyrrolidine-3-carboxylic acid], the IC50 worked out at 409 nM.

Take `COc1nc(NCCc2ccc(OC(F)(F)F)cc2)cc(N2CCc3ccccc3C2)n1` [Example 12, [6-(3,4-Dihydro-1H-isoquinolin-2-yl)-2-methoxy-pyrimidin-4-yl]-[2-(4-trifluoromethoxy-phenyl)-ethyl]-amine trifluoroacetic acid salt]: the IC50 was 1220 nM.

With `COc1nc(NCCc2ccc(OC(F)(F)F)cc2)cc(N2CCC(C(=O)O)C2)n1` (stereo not drawn) [Example 9, 1-{2-Methoxy-6-[2-(4-trifluoromethoxy-phenyl)-ethylamino]-pyrimidin-4-yl}-pyrrolidine-3-carboxylic acid], the IC50 turned out to be 575 nM.

With `COc1nc(NCCc2ccc(OC(F)(F)F)cc2)cc(N2C[C@@H](C(=O)O)[C@H](c3ccccc3OC)C2)n1` (racemic) [Example 15, (±)-trans-4-(2-Methoxy-phenyl)-1-{2-methoxy-6-[2-(4-trifluoromethoxy-phenyl)-ethylamino]-pyrimidin-4-yl}-pyrrolidine-3-carboxylic acid], the IC50 turned out to be 436 nM.

Regarding `COc1nc(NCCc2ccc(OC(F)(F)F)cc2)cc(N2C[C@H](C(=O)O)[C@@H](c3ccccc3)C2)n1` [Example 10, (3R,4S)-1-{2-Methoxy-6-[2-(4-trifluoromethoxy-phenyl)-ethylamino]-pyrimidin-4-yl}-4-phenyl-pyrrolidine-3-carboxylic acid], the half-maximal inhibitory concentration (IC50) was found to be 28 nM.

On to `COc1nc(NCCc2ccc(OC(F)(F)F)cc2)cc(N2CCOC(C(=O)O)C2)n1` (stereo not drawn) [Example 1, 4-{2-Methoxy-6-[2-(4-trifluoromethoxy-phenyl)-ethylamino]-pyrimidin-4-yl}-morpholine-2-carboxylic acid trifluoroacetate], for which the IC50 amounted to 10 nM.

Usually IC50 stands for the concentration at which inhibition is half-maximal.
